Data reported in patent publication EP0362382A1, “METHOD OF STERILIZING PLANT POLLEN” (VSESOJUZNY NAUCHNO-ISSLEDOVATELSKY INST. SELSKOKHOZYAISTV. …, priority 1988, dated 1989).

Tests used:
diploidem Roggen = experiment: Field test of gametocidal activity (sterilisation of anthers), diploid rye; format: in vivo; settings: 1%ige wäßrige Emulsion
Text: (§1) Die gametozide Aktivitat der erfindungsgemäßen Sterilisationsmittel war im Feldversuch in verschiedenen bodenklimatischen Zonen mit Teilstücken von 10 m^2 Größe in drei- bis viermaliger Wiederholung festgestellt. Jedes Sterilisationsmittel wurde mindenstens 5 Jahre lang geprüft.
(§2) Die Entwicklung der Perioden der Organogenese wird zytologisch überwacht. Die Behandlung von Pflanzen mit dem Sterilisationsmittel erfolgt am Anfang der fünften Periode der Organogenese nach Kupermann.
(§3) Mit dem Ährenschieben verwirklicht man die Isolierung von Hauptähren und anderen Stockwerken in Pergamentbeuteln. Bei Weizen und Tritikale werden Einzelisolatoren benutzt. Bei Roggen schließt man je Ähre 5 bis 7 verschiedene nebeneinander befindliche Pflanzen unter einen gemeinsamen Isolator ein. Bei Hierse wird jede Rispe getrennt isoliert. Der Sterilitätsprozentsatz (X) für Weizen, Roggen, Tritikale und Hirse wird nach der Formel [formula] ermittelt.
(§4) Die Kornzahl in nicht isolierten Ähren von Kontrollpflanzen wird bedingt für 100 % Ansetzen bei freier Bestäubung angenommen.
(§5) Um zuverlässige Angaben zu erhalten, verwendet man 20 bis 25 Isolatoren jeder Wiederholung für Weizen und Tritikale, 10 .bis 15 Isolatoren jeder Wiederholung für Roggen und Hirse.
Pflanzen von diploidem Roggen Sorte Wosohod 2 werden in der V. Periode der Organogenese (nach Kupermann) mit 1%iger wäßriger Emulsion von Bis(di-n-butyläther) der δ, δ' -Thiodivaleriansäure, 4-Krboxybutyldezylsulfid, Natriumsalz der δ, δ' -Thiodivaleriansäure, Bis(2-äthylhexyläther) der δ, δ' -Thiodivaleriansäure, δ, δ' -Sulfonyldivaleriansäure, Natriumsalz der δ, δ'-Sulfonyldivaleriansäure, Kaliumsalz der δ, δ' -Sulfonyldivaleriansäure behandelt. Die Emulsion enthält 0,1 Masse% […] mit 12 bis 14 Kohlenstoffatomen und 0,01 Masse% Tetrahydrofuran. Der Verbrauch an Präparat beträgt 6 kg/ha. Als Kontrolle dienen Pflanzen, behandelt mit einem Verdünner ohne Sterilisationsmittel.
Pflanzen von diploidem Roggen Sorte Gibrid 1861/79 werden in der V. und VI. Periode der Organogenese (nach Kupermann) mit 1%iger wäßriger Emulsion von Bis(di-n-butyläther) der δ, δ' -Thiodivaleriansäure, δ, δ' -Thiodivaleriansäure, Natriumsalz der δ δ' -Thiodivaleriansäure, 4-Karboxybutyldezylsulfid, δ , δ' -Sulfonyldivaleriansäure, Kaliumsalz der δ, δ' -Sulfonyldivaleriansäuleriansäure, Kaliumalz der δ' -Sulfonyldivaleriansäure, Bis(2-äthylhexyläther) der δ, δ' -Thiodivaleriansäure behandelt. Die Emulsion enthält 0,1 Masse% Kalziumalkylbenzolsulfonat mit 12 bis 14 Kohlenstoffatomen und 0,01 Masse% Dimethylformamid. Der Verbrauch an Präparat beträgt 8 kg/ha. Als Kontrolle dienen Pflanzen, behandelt mit einem Verdünner ohne Sterilisationsmittel. Die Prüfergebnisse sind in der Tabelle 10 angegeben.

Winterweizen = experiment: Field test of gametocidal activity (sterilisation of anthers), winter wheat; format: in vivo; settings: V. Periode der Organogenese, 2%ige wäßrige Emulsion
Text: as §1, §2, §3, §4, §5
Pflanzen des Winterweizens Sorte Mironowskaja 808 werden in der V. Periode der Organogenese durch Zerstäubung der 2%igen wäßrigen Emulsion der δ, δ' -Thiodivaleriansäure mit Hilfe einer Rückenspritze behandelt. Als Emulgiermittel wird 0,1 Masse% Kalziumalkylbenzalsulfonat mit 12 bis 14 Kohlenstoffatomen hinzugefügt. Als Adjuvans führt man in die Emulsion 0,01 Masse% Dimethylsulfoxid ein. Der Verbrauch an Präparat beträgt 20 kg/ha. Als Kontrolle dienen Pflanzen, behandelt mit einem Verdünner ohne Sterilisationsmittel. Die Ergebnisse sind in der Tabelle 1 angegeben. […] Periode der Organogenese erhalten.
Der Prozeß erfolgt analog zu dem im Beispiel 1 bescnriebenen. Als Sterilisationsmittel benutzt man 2%ige wäßrige Emulsion von Natriumsalz der δ, δ'-Thiodivaleriansäure, δ, δ' -Sulfonyldivaleriansäure, Natriumsalz der δ, δ' -Sulfonyldivaleriansäure, Kaliumsalz der δ, δ'--Sulfonyldivaleriansäure, Bis(di-n-butyläther) der δ, δ'--Thiodivaleriansäure, 4-Karboxybutyldezylsulfid bzw.
Pflanzen des Winterweizens Sorte Korall werden in der V. Periode der Organogenese (nach Kupermann) mit 2%iger wäßriger Emulsion von Bis(2-äthylhexyläther) der δ, δ' --Thiodivaleriansäure, 4-Karboxybutyldezylsulfid bzw. Bis(di--n-butyläther) der δ, δ' -Thiodivalerianqäure behandelt. Die Emulsion enthält 0,1 Masse% Kalziumalkylbenzolsulfonat mit 12 bis 14 Kohlenstoffatomen und 0,01 Masse% Dodezylsulfat. Der Verbrauch an Präparat beträgt 12 kg/ha. Als Kontrolle dienen Pflanzen, behandelt mit einem Verdünner ohne Sterilisationsmittel. Die Prüfergebnisse sind in der Tabelle 2 angegeben.
Pflanzen des Winterweizens Gordeiforme 12303 werden in der V. Periode der Organogenese (nach Kupermann) mit 2%iger wäßriger Emulsion von 4-Karboxybutyldezylsulfid, Bis(2-äthylhexyläther) der δ, δ' -Thiodivaleriansäure, δ, δ' -Sulfonyldivaleriansäure behandelt. Die Emulsion enthält als Emulgiermittel 0,1 Masse% Kalziumalkylbenzolsulfonat mit 12 bis 14 Kohlenstoffatomen und 0,01 Masse% Dimethylformamid. Der Verbrauch an Präparat beträgt 16 kg/ha. Als Kontrolle dienen Pflanzen, behandelt mit einem Verdünner ohne Sterilisationsmittel.

[1] = Sorte Wosohod 2, V. Periode der Organogenese, 6 kg/ha
[2] = Sorte Gibrid 1861/79, V. und VI. Periode der Organogenese, 8 kg/ha
[3] = Sorte Mironowskaja 808, 20 kg/ha

Row | Compound | Anzahl von Körnern der Ähre bei freier Bestäubung (diploidem Roggen; [1]) | Anzahl von Körnern der Ähre im Isolator (diploidem Roggen; [1]) | Prozentsatz der Sterilität (diploidem Roggen; [1]) | Prozentsatz des Ansetzens von Körnern bei freier Bestäubung (diploidem Roggen; [1]) | Anzahl von Körnern der Ähre bei freier Bestäubung (diploidem Roggen; [2]) | Anzahl von Körnern der Ähre im Isolator (diploidem Roggen; [2]) | Prozentsatz der Sterilität (diploidem Roggen; [2]) | Prozentsatz des Ansetzens von Körnern bei freier Bestäubung (diploidem Roggen; [2]) | further results
1 | O=C(O)CCCCSCCCCC(=O)O [Beispiel 39, Natriumsalz der δ, δ' -Thiodivaleriansäure] | 50,5 | 0,1 | 99,8% | 92,5% | – | – | – | – | –
2 | CCCCC(CC)COC(=O)CCCCSCCCCC(=O)OCC(CC)CCCC (stereo not drawn) [Beispiel 40, Bis(2-äthylhexyläther) der δ, δ' -Thiodivaleriansäure] | 52,9 | 0,0 | 100,0% | 96,9% | – | – | – | – | –
3 | O=C(O)CCCCS(=O)(=O)CCCCC(=O)O [Beispiel 41, δ, δ' -Sulfonyldivaleriansäure] | 48,4 | 0,1 | 99,8% | 88,6% | – | – | – | – | –
4 | O=C(O)CCCCS(=O)(=O)CCCCC(=O)O [Beispiel 42, Natriumsalz der δ, δ'-Sulfonyldivaleriansäure] | 47,4 | 0,1 | 99,8% | 86,8% | – | – | – | – | –
5 | O=C(O)CCCCS(=O)(=O)CCCCC(=O)O [Beispiel 43, Kaliumsalz der δ, δ' -Sulfonyldivaleriansäure] | 53,8 | 0,6 | 98,8% | 98,5% | – | – | – | – | –
6 | CCCCOC(=O)CCCCSCCCCC(=O)OCCCC [Beispiel 44, Bis(di-n-butyläther) der δ, δ' -Thiodivaleriansäure] | – | – | – | – | 60,0 | 0,0 | 100,0% | 95,5% | –
7 | O=C(O)CCCCSCCCCC(=O)O [Beispiel 45, δ, δ' -Thiodivaleriansäure] | – | – | – | – | 58,6 | 0,1 | 99,8% | 93,3% | –
8 | O=C(O)CCCCSCCCCC(=O)O [Beispiel 46, Natriumsalz der δ δ' -Thiodivaleriansäure] | – | – | – | – | 57,1 | 0,1 | 99,8% | 90,9% | –
9 | CCCCCCCCCCSCCCCC(=O)O [Beispiel 47, 4-Karboxybutyldezylsulfid] | – | – | – | – | 52,8 | 0,0 | 100,0% | 84,1% | –
10 | O=C(O)CCCCSCCCCC(=O)O [Beispiel I, δ, δ' -Thiodivaleriansäure] | – | – | – | – | – | – | – | – | Anzahl von Körnern der Ähre bei freier Bestäubung (Winterweizen; [3]): 37,0; Anzahl von Körnern der Ähre im Isolator (Winterweizen; [3]): 0,5; Prozentsatz der Sterilität (Winterweizen; [3]): 98,8%; Prozentsatz des Ansetzens von Körnern bei freier Bestäubung (Winterweizen; [3]): 89,8%
11 | Bis(di--n-butyläther) der δ, δ' -Thiodivalerianqäure [Beispiel 11] | – | – | – | – | – | – | – | – | Anzahl von Körnern der Ähre bei freier Bestäubung (Winterweizen; Sorte Korall, 12 kg/ha): 30,2; Anzahl von Körnern der Ähre im Isolator (Winterweizen; Sorte Korall, 12 kg/ha): 0,1; Prozentsatz der Sterilität (Winterweizen; Sorte Korall, 12 kg/ha): 99,5%; Prozentsatz des Ansetzens von Körnern bei freier Bestäubung (Winterweizen; Sorte Korall, 12 kg/ha): 93,2%
12 | Bis(di-n-butyläther) der δ, δ'--Thiodivaleriansäure [Beispiel 6] | – | – | – | – | – | – | – | – | Anzahl von Körnern der Ähre bei freier Bestäubung (Winterweizen; [3]): 34,8; Anzahl von Körnern der Ähre im Isolator (Winterweizen; [3]): 0,0; Prozentsatz der Sterilität (Winterweizen; [3]): 100,0%; Prozentsatz des Ansetzens von Körnern bei freier Bestäubung (Winterweizen; [3]): 84,5%
